Assay results reported in patent US9132098B2, “Stable nanocomposition comprising doxorubicin, process for the preparation thereof, its use and pharmaceutical compositions containing it” (BBS Nanotechnology Ltd., priority 2013, dated 2015).

Test system: SK-OV-3 human ovary adenocarcinoma cells
Test: Comparative efficacy study in SK-OV-3 s.c. xenograft SCID mouse model of ovary cancer
Format: in vivo, SCID mice
Details: 78th day after tumor inoculation, total dose DOX 23, NP 17, NP-PEG 23 mg/kg
Procedure: Tumor was induced in mice by implanting SK-OV-3 human ovary adenocarcinoma cells s.c. in upper region of back of SCID mice and allowing the tumors to develop to appreciable size over 40 days (30 mm3). The comparative efficacy study of six i.v. injection (day 43, 50, 57, 65, 71 and 78) of 5% glucose, doxorubicin (DOX) 3.8 mg/kg, NP […] and NP-PEG 3.8 mg/kg) was evaluated over 104 days. In this table there are the tumor volume of mice on 78th day after tumor inoculation (data represent mean±SEM of five mice per_group) and body weight of mice on 78th day after tumor inoculation (Data represent mean±STDEV of five mice per group). The table below discloses the comparative efficacy study in SK-OV-3 s.c. xenograft SCID mouse model of ovary cancer.

COc1cccc2c1C(=O)c1c(O)c3c(c(O)c1C2=O)C[C@@](O)(C(=O)CO)C[C@@H]3O[C@H]1C[C@H](N)[C@H](O)[C@H](C)O1 [DOX]
Tumor volume (mm^3) (six i.v. injections (day 43-78), mean±SEM of five mice): 294.8 ± 216 mm^3 | Animal weight (six i.v. injections, mean±STDEV of five mice): 22.54 ± 0.77 g
